The data set is described as follows: Aqueous solubility of compound. It counts as physicochemical. The conditions noted are these: buffer.
`CS(=O)(=O)c1c(CCc2ccccc2)c2cc(OCC(=O)Nc3ccccc3)ccc2[nH]c1=O`: the solubility entry is listed as “Insoluble”.
Regarding `Cn1c(=O)c(S(C)(=O)=O)c(CCc2ccccc2)c2cc(OCC(=O)NCc3ccc(Cl)c(Cl)c3)ccc21`, the solubility entry was “Insoluble”.
With `CN(Cc1ccc(Cl)c(Cl)c1)C(=O)COc1ccc2[nH]c(=O)c(S(C)(=O)=O)c(CCc3ccccc3)c2c1`, the solubility result was “Insoluble”.
For `COCCCNC(=O)COc1ccc2[nH]c(=O)c(S(C)(=O)=O)c(CCc3ccccc3)c2c1`, the solubility entry is recorded as “Insoluble”.
On to `CS(=O)(=O)c1c(CCc2ccccc2)c2cc(OCC(=O)NCc3ccc(Cl)c(Cl)c3)ccc2[nH]c1=O`, for which the solubility result was “Insoluble”.
Next, `CS(=O)(=O)c1c(CCc2ccccc2)c2cc(OCC(=O)NCC3CC3)ccc2[nH]c1=O`: “Insoluble”.
Next, `CS(=O)(=O)c1c(CCc2ccccc2)c2cc(OCC(=O)NCc3ccccc3)ccc2[nH]c1=O`: “Insoluble”.
For `COc1ccc2[nH]c(=O)c(S(C)(=O)=O)c(CCc3ccccc3)c2c1`, the solubility result is given as “Insoluble”.
